Consider 27 compounds from patent US10766869B2, “Triazoles for the treatment of demyelinating dieases” (Vertex Pharmaceuticals Incorporated, priority 2015, dated 2020).

This assay has as its system primary rat mixed cortical cells. Nature of the assay: In vitro myelination assay (MBP positive myelin strands, fold myelin pixels above background). The assay is classed as cell-based. To be noted: Rattus norvegicus; for fold induction at 1 µM: 1.0 μM compound; for fold induction at 10 µM: 10.0 μM compound. Put shortly:
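P1 rat mixed cortical cultures (neurons, OPCs, oligodendrocytes, astrocytes, microglia) grown 14 days at 37 °C with compound, half-medium refreshed with compound on days 6 and 10. Fixed cells stained for MBP; MBP-positive myelin strand pixels per well quantified by automated imaging, reported as fold over no-compound baseline at 1.0 and 10.0 μM.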

Where [1] appears, read: relative to baseline of no added compound, read-out: Fold myelin pixels above background, 1.0 μM.
The mark [2] stands for this setting: relative to baseline of no added compound, read-out: Fold myelin pixels above background, 10.0 μM.
[3] abbreviates: relative to baseline of no added compound, read-out: Fold myelin pixels above background.
Setting [4] is: read-out: Fold myelin pixels above background relative to baseline of no added compound.

Where two headings read alike, the source gives them in different places. Bounds are passed on as bounds.

Take `Cc1cc(Nc2ncn(-c3cc(F)cc(F)c3)n2)cc(N2CCN(C3COC3)CC2)n1` [Compound 1, N-[1-(3,5-difluorophenyl)-1,2,4-triazol-3-yl]-2-methyl-6-[4-(oxetan-3-yl)piperazin-1-yl]pyridin-4-amine]: the fold induction at 1 µM under setting [1] was in the range of 1000 to 10000. For the same compound, under setting [2], the fold induction at 10 µM was in the range of 100 to 1000.
With `CC(=O)N1CCC(Oc2cc(C)cc(Nc3ncn(-c4ccc(F)c(F)c4)n3)c2)CC1` [Compound 626, 1-[4-[3-[[1-(3,4-difluorophenyl)-1,2,4-triazol-3-yl]amino]-5-methyl-phenoxy]-1-piperidyl]ethanone], under setting [3], the fold induction at 1 µM was 10 to 100 and the fold induction at 10 µM was at most 1.
For the compound `Fc1cc(F)cc(-n2cnc(Nc3cc(Cl)cc(N4CCN(C5COC5)CC4)c3)n2)c1` [Compound 5, N-[3-chloro-5-[4-(oxetan-3-yl)piperazin-1-yl]phenyl]-1-(3,5-difluorophenyl)-1,2,4-triazol-3-amine], under setting [1], the fold induction at 1 µM lay in the range of 1000 to 10000. Besides, under setting [2], the fold induction at 10 µM is at most 1.
For the compound `Cc1cc(Nc2ncn(-c3ccc(F)c(F)c3)n2)cc(N2CC3(C2)CN(C(C)C)C3)c1` [Compound 977, 1-(3,4-difluorophenyl)-N-[3-(2-isopropyl-2,6-diazaspiro[3.3]heptan-6-yl)-5-methyl-phenyl]-1,2,4-triazol-3-amine], under setting [4], the fold induction at 1 µM fell in the range of 1 to 10 and the fold induction at 10 µM is at most 1.
For `CC(C)Oc1cc(Nc2ncn(-c3cc(F)cc(F)c3)n2)cc(N2CCN(C3COC3)CC2)c1` [Compound 653, 1-(3,5-difluorophenyl)-N-[3-isopropoxy-5-[4-(oxetan-3-yl)piperazin-1-yl]phenyl]-1,2,4-triazol-3-amine], under setting [3], the fold induction at 1 µM is 10 to 100 and the fold induction at 10 µM is at most 1.
Consider `Cc1cc(Nc2ncn(-c3ccccc3)n2)cc(NC2CCN(C3COC3)C2)c1` (stereo not drawn) [Compound 309, 5-methyl-N1-[1-(oxetan-3-yl)pyrrolidin-3-yl]-N3-(1-phenyl-1,2,4-triazol-3-yl)benzene-1,3-diamine], for which the fold induction at 1 µM under setting [1] was 1000 to 10000. Further, the fold induction at 10 µM under setting [2] is at most 1.
With `CCC1CN(CCNc2cc(C)cc(Nc3ncn(-c4cc(F)cc(F)c4)n3)c2)CCO1` (stereo not drawn) [Compound 917, N3-[1-(3,5-difluorophenyl)-1,2,4-triazol-3-yl]-N1-[2-(2-ethylmorpholin-4-yl)ethyl]-5-methyl-benzene-1,3-diamine], under setting [4], the fold induction at 1 µM is 10 to 100 and the fold induction at 10 µM is at most 1.
As for `CCc1cc(Nc2ncn(-c3cnccn3)n2)cc(N2CCN(C(=O)OC(C)(C)C)CC2)c1` [Compound 368, tert-butyl 4-[3-ethyl-5-[(1-pyrazin-2-yl-1,2,4-triazol-3-yl)amino]phenyl]piperazine-1-carboxylate], under setting [1], the fold induction at 1 µM was 10 to 100. Further, the fold induction at 10 µM under setting [2] was in the range of 1 to 10.
Turning to `Cc1cc(CN2CCN(C3COC3)CC2)c(F)c(Nc2ncn(-c3cc(F)cc(F)c3)n2)c1` [Compound 630, 1-(3,5-difluorophenyl)-N-[2-fluoro-5-methyl-3-[[4-(oxetan-3-yl)piperazin-1-yl]methyl]phenyl]-1,2,4-triazol-3-amine], under setting [3], the fold induction at 1 µM lay within 1 to 10 and the fold induction at 10 µM is 1 to 10.
Consider `Cc1cc(Nc2ncn(-c3cc(F)cc(F)c3)n2)cc(N2CCN(C(=O)N3CCOCC3)CC2)c1` [Compound 582, [4-[3-[[1-(3,5-difluorophenyl)-1,2,4-triazol-3-yl]amino]-5-methyl-phenyl]piperazin-1-yl]-morpholino-methanone], for which, under setting [3], the fold induction at 1 µM is 1 to 10 and the fold induction at 10 µM is 10 to 100.
With `Cc1c(Nc2ncn(-c3cc(F)cc(F)c3)n2)cc(N2CC(N3CCOCC3)C2)cc1OC(C)C` [Compound 641, 1-(3,5-difluorophenyl)-N-[3-isopropoxy-2-methyl-5-(3-morpholinoazetidin-1-yl)phenyl]-1,2,4-triazol-3-amine], under setting [3], the fold induction at 1 µM lay within 10 to 100 and the fold induction at 10 µM lay in the range of 1 to 10.
Turning to `Cc1cc(NCCOC2CCC2)cc(Nc2ncn(-c3cc(F)cc(F)c3)n2)c1` [Compound 1008, N3-[2-(cyclobutoxy)ethyl]-N1-[1-(3,5-difluorophenyl)-1,2,4-triazol-3-yl]-5-methyl-benzene-1,3-diamine], under setting [4], the fold induction at 1 µM lay within 10 to 100 and the fold induction at 10 µM lay within 1 to 10.
Regarding `Cc1cc(Nc2ncn(-c3cnccn3)n2)cc(N2CCC(C3COC3)CC2)c1` [Compound 521, N-[3-methyl-5-[4-(oxetan-3-yl)-1-piperidyl]phenyl]-1-pyrazin-2-yl-1,2,4-triazol-3-amine], under setting [3], the fold induction at 1 µM is 100 to 1000 and the fold induction at 10 µM is 100 to 1000.
As to `CC1(N2CCN(c3cc(C(F)F)cc(Nc4ncn(-c5ccc(F)c(F)c5)n4)n3)CC2)COC1` [Compound 849, 4-(difluoromethyl)-N-[1-(3,4-difluorophenyl)-1,2,4-triazol-3-yl]-6-[4-(3-methyloxetan-3-yl)piperazin-1-yl]pyridin-2-amine], under setting [4], the fold induction at 1 µM lay in the range of 10 to 100 and the fold induction at 10 µM fell in the range of 10 to 100.
On to `COc1cc(Nc2ncn(-c3cccc(C(F)F)c3)n2)cc(N2CCN(C3COC3)CC2)c1` [Compound 693, 1-[3-(difluoromethyl)phenyl]-N-[3-methoxy-5-[4-(oxetan-3-yl)piperazin-1-yl]phenyl]-1,2,4-triazol-3-amine], for which, under setting [3], the fold induction at 1 µM lay within 1 to 10 and the fold induction at 10 µM is at most 1.
As to `Cc1cc(Nc2ncn(-c3cc(F)cc(F)c3)n2)cc(OC2CCOC2)c1` (stereo not drawn) [Compound 703, 1-(3,5-difluorophenyl)-N-(3-methyl-5-tetrahydrofuran-3-yloxy-phenyl)-1,2,4-triazol-3-amine], under setting [3], the fold induction at 1 µM lay in the range of 10 to 100 and the fold induction at 10 µM lay within 1 to 10.
Take `Cc1cc(Nc2ncn(-c3cc(F)cc(F)c3)n2)cc(N2CCC(N3CCC(O)CC3)CC2)c1` [Compound 879, 1-[1-[3-[[1-(3,5-difluorophenyl)-1,2,4-triazol-3-yl]amino]-5-methyl-phenyl]-4-piperidyl]piperidin-4-ol]: under setting [4], the fold induction at 1 µM is at most 1 and the fold induction at 10 µM was at most 1.
For the compound `Cc1c(Nc2ncn(-c3cc(F)cc(F)c3)n2)cc(N2CCN(C3COC3)CC2)cc1OC(C)C` [Compound 591, 1-(3,5-difluorophenyl)-N-[3-isopropoxy-2-methyl-5-[4-(oxetan-3-yl)piperazin-1-yl]phenyl]-1,2,4-triazol-3-amine], under setting [3], the fold induction at 1 µM fell in the range of 10 to 100 and the fold induction at 10 µM lay within 10 to 100.
With `Cc1cc(Nc2ncn(-c3ccccc3F)n2)cc(N2CCN(C3COC3)CC2)c1` [Compound 223, 1-(2-fluorophenyl)-N-[3-methyl-5-[4-(oxetan-3-yl)piperazin-1-yl]phenyl]-1,2,4-triazol-3-amine], the fold induction at 1 µM under setting [1] was in the range of 10 to 100. For the same compound, the fold induction at 10 µM under setting [2] is 10 to 100.
With `Cc1cc(Nc2ncn(-c3ccc(F)c(F)c3)n2)c(F)c(OC2CCOC2)c1` (single isomer, unassigned) [Compound 1009, 1-(3,4-difluorophenyl)-N-(2-fluoro-5-methyl-3-tetrahydrofuran-3-yloxy-phenyl)-1,2,4-triazol-3-amine], under setting [4], the fold induction at 1 µM was 10 to 100 and the fold induction at 10 µM was in the range of 1 to 10.
For `Cc1cc(Nc2ncn(-c3cc(F)cc(F)c3)n2)cc(N2CCN(C3CS(=O)(=O)C3)CC2)c1` [Compound 228, 1-(3,5-difluorophenyl)-N-[3-[4-(1,1-dioxothietan-3-yl)piperazin-1-yl]-5-methyl-phenyl]-1,2,4-triazol-3-amine], under setting [1], the fold induction at 1 µM is 10 to 100. Besides, the fold induction at 10 µM under setting [2] lay in the range of 100 to 1000.
`Cc1nccc(-n2cnc(Nc3cc(C4CC4)cc(N4CCN(C5COC5)CC4)c3)n2)n1` [Compound 454, N-[3-cyclopropyl-5-[4-(oxetan-3-yl)piperazin-1-yl]phenyl]-1-(2-methylpyrimidin-4-yl)-1,2,4-triazol-3-amine]: under setting [3], the fold induction at 1 µM was at most 1 and the fold induction at 10 µM was in the range of 1 to 10.
Regarding `COCC1CCN(c2cc(C)cc(Nc3ncn(-c4cc(F)cc(F)c4)n3)c2)CC1` [Compound 162, 1-(3,5-difluorophenyl)-N-[3-[4-(methoxymethyl)-1-piperidyl]-5-methyl-phenyl]-1,2,4-triazol-3-amine], under setting [1], the fold induction at 1 µM is at most 1. For the same compound, the fold induction at 10 µM under setting [2] is at most 1.
As to `O=c1cc(-n2cnc(Nc3cc(C(F)F)cc(N4CCN(C5COC5)CC4)c3)n2)cc[nH]1` [Compound 163, 4-[3-[3-(difluoromethyl)-5-[4-(oxetan-3-yl)piperazin-1-yl]anilino]-1,2,4-triazol-1-yl]-1H-pyridin-2-one], the fold induction at 1 µM under setting [1] fell in the range of 100 to 1000. Besides, the fold induction at 10 µM under setting [2] is at most 1.
On to `Cc1cc(Nc2ncn(-c3cc(F)cc(F)c3)n2)cc(N2CCN3CC(F)(F)C[C@H]3C2)c1` [Compound 831, N-[3-[(8aS)-7,7-difluoro-13,4,6,8,8a-hexahydropyrrolo[1,2-a]pyrazin-2-yl]-5-methyl-phenyl]-1-(3,5-difluorophenyl)-1,2,4-triazol-3-amine], for which, under setting [4], the fold induction at 1 µM was 10 to 100 and the fold induction at 10 µM lay in the range of 10 to 100.
As for `COc1cc(Nc2ncn(-c3ccc(F)c(F)c3)n2)cc(N2CCN(C3COC3)CC2)c1` [Compound 183, 1-(3,4-difluorophenyl)-N-[3-methoxy-5-[4-(oxetan-3-yl)piperazin-1-yl]phenyl]-1,2,4-triazol-3-amine], under setting [1], the fold induction at 1 µM was 100 to 1000. In addition, the fold induction at 10 µM under setting [2] fell in the range of 10 to 100.
For `CN1CCN(c2cc(Nc3ncn(-c4ccccc4)n3)cc(C(F)(F)F)c2)CC1` [Compound 486, N-[3-(4-methylpiperazin-1-yl)-5-(trifluoromethyl)phenyl]-1-phenyl-1,2,4-triazol-3-amine], under setting [3], the fold induction at 1 µM was 100 to 1000 and the fold induction at 10 µM was at most 1.
